# Data from US7138361B2, “Herbicidal heterocycles” (E. I. du Pont de Nemours and Company, priority 2000, dated 2006).
# Tests used:
# Assay type in all cases: in vivo
# [1] = tested on: crabgrass (Digitaria sanguinalis); experiment: Test B postemergence
# Summary of the method: (§1)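 Preemergence: seeds planted and treated with test chemicals in non-phytotoxic solvent with surfactant; postemergence on plants 2–18 cm (1- to 4-leaf stage). Kept in greenhouse 13–15 days, then visually rated against controls on a 0 (no effect) to 100 (complete control) scale.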
# [2] = tested on: giant foxtail (Setaria faberii); experiment: Test B postemergence
# Summary of the method: as §1
# [3] = tested on: wheat (Triticum aestivum); experiment: Test B postemergence
# Summary of the method: as §1
# [4] = tested on: barnyardgrass (Echinochloa crus-galli); experiment: Test B postemergence
# Summary of the method: as §1
# [5] = tested on: morning glory (Ipomoea hederacea); experiment: Test B postemergence
# Summary of the method: as §1
# wild oat (Avena fatua) = experiment: Test B postemergence
# Summary of the method: as §1
# corn (Zea mays) [6] = experiment: Test B postemergence
# Summary of the method: as §1
# [7] = tested on: cocklebur (Xanthium strumarium); experiment: Test B postemergence
# Summary of the method: as §1
# [8] = tested on: pigweed (Amaranthus retroflexus); experiment: Test B postemergence
# Summary of the method: as §1
# [9] = tested on: lambsquarters (Chenopodium album); experiment: Test B postemergence
# Summary of the method: as §1
# [10] = tested on: Surinam grass (Brachiaria decumbens); experiment: Test B postemergence
# Summary of the method: as §1
# [11] = tested on: blackgrass (Alopecurus myosuroides); experiment: Test B postemergence
# Summary of the method: as §1
# [12] = tested on: velvetleaf (Abutilon theophrasti); experiment: Test B postemergence
# Summary of the method: as §1
# [13] = tested on: barnyardgrass (Echinochloa crus-galli); experiment: Test C flooded paddy test; conditions: for Barnyardgrass plant response rating: Flooded Paddy, scale 0 to 100, 0 no effect, 100 complete control; for Plant response rating, Barnyardgrass: scale 0 to 100 (0 no effect, 100 complete control)
# Summary of the method: (§2)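 Greenhouse-maintained for 12 to 14 days after treatment, the paddy plants (2-leaf stage at application) were scored visually against controls. A score of 0 denotes no effect and a score of 100 denotes complete control.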
# rice (Oryza saliva) [14] = experiment: Test C flooded paddy test; conditions: for Rice plant response rating: Flooded Paddy, scale 0 to 100, 0 no effect, 100 complete control; for Plant response rating, Rice: scale 0 to 100 (0 no effect, 100 complete control)
# Summary of the method: as §2
# [15] = tested on: smallflower flatsedge (Cyperus difformis); experiment: Test C flooded paddy test; conditions: for Flatsedge plant response rating: Flooded Paddy, scale 0 to 100, 0 no effect, 100 complete control; for Plant response rating, Flatsedge: scale 0 to 100 (0 no effect, 100 complete control)
# Summary of the method: as §2
# [16] = tested on: duck salad (Heteranthera limosa); experiment: Test C flooded paddy test; conditions: for Ducksalad plant response rating: Flooded Paddy, scale 0 to 100, 0 no effect, 100 complete control; for Plant response rating, Ducksalad: scale 0 to 100 (0 no effect, 100 complete control)
# Summary of the method: as §2
# [17] = tested on: crabgrass (Digitaria sanguinalis); experiment: Test B preemergence
# Summary of the method: as §1
# [18] = tested on: giant foxtail (Setaria faberii); experiment: Test B preemergence
# Summary of the method: as §1
# [19] = tested on: barnyardgrass (Echinochloa crus-galli); experiment: Test B preemergence
# Summary of the method: as §1
# [20] = tested on: morning glory (Ipomoea hederacea); experiment: Test B preemergence
# Summary of the method: as §1
# corn (Zea mays) [21] = experiment: Test B preemergence
# Summary of the method: as §1
# [22] = tested on: cocklebur (Xanthium strumarium); experiment: Test B preemergence
# Summary of the method: as §1
# [23] = tested on: pigweed (Amaranthus retroflexus); experiment: Test B preemergence
# Summary of the method: as §1
# rice (Oryza saliva) [24] = experiment: Test B preemergence
# Summary of the method: as §1
# [25] = tested on: lambsquarters (Chenopodium album); experiment: Test B preemergence
# Summary of the method: as §1
# [26] = tested on: Surinam grass (Brachiaria decumbens); experiment: Test B preemergence
# Summary of the method: as §1
# [27] = tested on: velvetleaf (Abutilon theophrasti); experiment: Test B preemergence
# Summary of the method: as §1
# [28] = Rate 125 g/ha, scale 0 to 100, 0 no effect, 100 complete control
# [29] = Rate 500 g/ha, scale 0 (no effect) to 100 (complete control), 13 to 15 days
# [30] = flooded paddy test, Rate 125 g/ha
# [31] = flooded paddy test, Rate 250 g/ha
# [32] = flooded paddy test, Rate 62 g/ha, visually evaluated after 12 to 14 days, 0 = no effect, 100 = complete control
# [33] = Preemergence, Rate 500 g/ha, scale 0 to 100, 0 no effect, 100 complete control
# [34] = preemergence, Rate 125 g/ha, scale of 0 to 100 where 0 is no effect and 100 is complete control, 13 to 15 days
# [35] = Rate 500 g/ha, scale 0 to 100, 0 is no effect, 100 is complete control, 13 to 15 days
# [36] = flooded paddy test, Rate 62 g/ha
structure (smiles),measurement,setting,value
CC(C)(C)c1ccn(C2CCN(c3ccc(F)c(C(F)(F)F)c3)C2=O)n1 (stereo not drawn) [Compound 146],"Plant response rating, Crabgrass",[1]; [28],0
same,"Plant response rating, Crabgrass",[1]; [29],60
same,"Plant response rating, Foxtail, Giant",[2]; [28],0
same,"Plant response rating, Foxtail, Giant",[2]; [29],70
same,"Plant response rating, Wheat",[3]; [28],0
same,"Plant response rating, Wheat",[3]; [29],0
same,"Plant response rating, Barnyardgrass",[4]; [28],0
same,"Plant response rating, Barnyardgrass",[4]; [29],90
same,"Plant response rating, Morningglory",[5]; [28],0
same,"Plant response rating, Morningglory",[5]; [29],0
same,"Plant response rating, Wild Oat",wild oat (Avena fatua); [28],0
same,"Plant response rating, Wild Oat",wild oat (Avena fatua); [29],0
same,"Plant response rating, Corn",corn (Zea mays) [6]; [28],0
same,"Plant response rating, Corn",corn (Zea mays) [6]; [29],0
same,"Plant response rating, Cocklebur",[7]; [28],0
same,"Plant response rating, Cocklebur",[7]; [29],0
same,"Plant response rating, Pigweed",[8]; [28],0
same,"Plant response rating, Pigweed",[8]; [29],70
same,"Plant response rating, Lambsquarters",[9]; [28],80
same,"Plant response rating, Lambsquarters",[9]; [29],100
same,"Plant response rating, Surinam grass",[10]; [28],0
same,"Plant response rating, Surinam grass",[10]; [29],0
same,"Plant response rating, Blackgrass",[11]; [28],0
same,"Plant response rating, Blackgrass",[11]; [29],0
same,"Plant response rating, Velvetleaf",[12]; [28],0
same,"Plant response rating, Velvetleaf",[12]; [29],0
same,Barnyardgrass plant response rating,[13]; Rate 500 g/ha,100
same,"Plant response rating, Barnyardgrass",[13]; [30],100
same,"Plant response rating, Barnyardgrass",[13]; [31],100
same,"Plant response rating (scale 0 to 100), Barnyardgrass",[13]; [32],75
same,Rice plant response rating,rice (Oryza saliva) [14]; Rate 500 g/ha,85
same,"Plant response rating, Rice",rice (Oryza saliva) [14]; [30],50
same,"Plant response rating, Rice",rice (Oryza saliva) [14]; [31],50
same,"Plant response rating (scale 0 to 100), Rice",rice (Oryza saliva) [14]; [32],15
same,Flatsedge plant response rating,[15]; Rate 500 g/ha,95
same,"Plant response rating, Flatsedge",[15]; [30],95
same,"Plant response rating, Flatsedge",[15]; [31],95
same,"Plant response rating (scale 0 to 100), Flatsedge",[15]; [32],60
same,Ducksalad plant response rating,[16]; Rate 500 g/ha,90
same,"Plant response rating, Ducksalad",[16]; [30],65
same,"Plant response rating, Ducksalad",[16]; [31],80
same,"Plant response rating (scale 0 to 100), Ducksalad",[16]; [32],40
same,"Plant response rating, Crabgrass",[17]; [33],100
same,"Plant response rating, Crabgrass",[17]; [34],100
same,"Plant response rating, Foxtail, Giant",[18]; [33],100
same,"Plant response rating, Foxtail, Giant",[18]; [34],100
same,"Plant response rating, Barnyardgrass",[19]; [33],100
same,"Plant response rating, Barnyardgrass",[19]; [34],90
same,"Plant response rating, Morningglory",[20]; [33],40
same,"Plant response rating, Morningglory",[20]; [34],0
same,"Plant response rating, Corn",corn (Zea mays) [21]; [33],0
same,"Plant response rating, Corn",corn (Zea mays) [21]; [34],0
same,"Plant response rating, Cocklebur",[22]; [33],0
same,"Plant response rating, Cocklebur",[22]; [34],0
same,"Plant response rating, Pigweed",[23]; [33],100
same,"Plant response rating, Pigweed",[23]; [34],100
same,"Plant response rating, Rice",rice (Oryza saliva) [24]; [33],0
same,"Plant response rating, Rice",rice (Oryza saliva) [24]; [34],0
same,"Plant response rating, Lambsquarters",[25]; [33],100
same,"Plant response rating, Lambsquarters",[25]; [34],100
same,"Plant response rating, Surinam grass",[26]; [33],100
same,"Plant response rating, Surinam grass",[26]; [34],40
same,"Plant response rating, Velvetleaf",[27]; [33],20
same,"Plant response rating, Velvetleaf",[27]; [34],0
CCOc1cccc(N2CCC(n3ccc(C(C)CC)n3)C2=O)c1 (stereo not drawn) [Compound 126],"Plant response rating, Crabgrass",[1]; [28],0
same,"Plant response rating, Foxtail, Giant",[2]; [28],0
same,"Plant response rating, Wheat",[3]; [28],0
same,"Plant response rating, Barnyardgrass",[4]; [28],0
same,"Plant response rating, Barnyardgrass",[4]; [35],80
same,"Plant response rating, Morningglory",[5]; [28],0
same,"Plant response rating, Wild Oat",wild oat (Avena fatua); [28],0
same,"Plant response rating, Corn",corn (Zea mays) [6]; [28],0
same,"Plant response rating, Corn",corn (Zea mays) [6]; [35],0
same,"Plant response rating, Cocklebur",[7]; [28],0
same,"Plant response rating, Cocklebur",[7]; [35],70
same,"Plant response rating, Pigweed",[8]; [28],30
same,"Plant response rating, Lambsquarters",[9]; [28],100
same,"Plant response rating, Surinam grass",[10]; [28],0
same,"Plant response rating, Surinam grass",[10]; [35],0
same,"Plant response rating, Blackgrass",[11]; [28],0
same,"Plant response rating, Blackgrass",[11]; [35],0
same,"Plant response rating, Velvetleaf",[12]; [28],0
same,Barnyardgrass plant response rating,[13]; Rate 250 g/ha,100
same,Barnyardgrass plant response rating,[13]; Rate 500 g/ha,100
same,"Plant response rating, Barnyardgrass",[13]; [36],35
same,"Plant response rating, Barnyardgrass",[13]; [30],100
same,Rice plant response rating,rice (Oryza saliva) [14]; Rate 250 g/ha,20
same,Rice plant response rating,rice (Oryza saliva) [14]; Rate 500 g/ha,60
same,"Plant response rating, Rice",rice (Oryza saliva) [14]; [36],0
same,"Plant response rating, Rice",rice (Oryza saliva) [14]; [30],20
same,Flatsedge plant response rating,[15]; Rate 250 g/ha,100
same,Flatsedge plant response rating,[15]; Rate 500 g/ha,100
same,"Plant response rating, Flatsedge",[15]; [36],100
same,"Plant response rating, Flatsedge",[15]; [30],100
same,Ducksalad plant response rating,[16]; Rate 250 g/ha,100
same,Ducksalad plant response rating,[16]; Rate 500 g/ha,100
same,"Plant response rating, Ducksalad",[16]; [36],60
same,"Plant response rating, Ducksalad",[16]; [30],100
same,"Plant response rating, Crabgrass",[17]; [33],100
same,"Plant response rating, Crabgrass",[17]; [34],100
same,"Plant response rating, Foxtail, Giant",[18]; [33],100
same,"Plant response rating, Foxtail, Giant",[18]; [34],100
same,"Plant response rating, Barnyardgrass",[19]; [33],100
same,"Plant response rating, Barnyardgrass",[19]; [34],100
same,"Plant response rating, Morningglory",[20]; [33],100
same,"Plant response rating, Morningglory",[20]; [34],70
same,"Plant response rating, Corn",corn (Zea mays) [21]; [33],50
same,"Plant response rating, Corn",corn (Zea mays) [21]; [34],30
same,"Plant response rating, Cocklebur",[22]; [33],70
same,"Plant response rating, Cocklebur",[22]; [34],50
same,"Plant response rating, Pigweed",[23]; [33],100
same,"Plant response rating, Pigweed",[23]; [34],100
same,"Plant response rating, Rice",rice (Oryza saliva) [24]; [33],100
same,"Plant response rating, Rice",rice (Oryza saliva) [24]; [34],70
same,"Plant response rating, Lambsquarters",[25]; [33],100
same,"Plant response rating, Lambsquarters",[25]; [34],100
same,"Plant response rating, Surinam grass",[26]; [33],100
same,"Plant response rating, Surinam grass",[26]; [34],100
same,"Plant response rating, Velvetleaf",[27]; [33],60
same,"Plant response rating, Velvetleaf",[27]; [34],0
